Experimental data from US10323027B2, “2,3-dihydro-4H-1,3-benzoxazin-4-one derivatives as modulators of cholinergic muscarinic M1 receptor” (Takeda Pharmaceutical Company Limited, priority 2015, dated 2019).
Where a name gives a salt, the structure may show the parent alone.

Molecular target: T1, human M1 receptor (hCHRM1) (Homo sapiens, UniProt P11229)
T1 construct: expressed in transfected cells
T1 sequence (P11229 1-460): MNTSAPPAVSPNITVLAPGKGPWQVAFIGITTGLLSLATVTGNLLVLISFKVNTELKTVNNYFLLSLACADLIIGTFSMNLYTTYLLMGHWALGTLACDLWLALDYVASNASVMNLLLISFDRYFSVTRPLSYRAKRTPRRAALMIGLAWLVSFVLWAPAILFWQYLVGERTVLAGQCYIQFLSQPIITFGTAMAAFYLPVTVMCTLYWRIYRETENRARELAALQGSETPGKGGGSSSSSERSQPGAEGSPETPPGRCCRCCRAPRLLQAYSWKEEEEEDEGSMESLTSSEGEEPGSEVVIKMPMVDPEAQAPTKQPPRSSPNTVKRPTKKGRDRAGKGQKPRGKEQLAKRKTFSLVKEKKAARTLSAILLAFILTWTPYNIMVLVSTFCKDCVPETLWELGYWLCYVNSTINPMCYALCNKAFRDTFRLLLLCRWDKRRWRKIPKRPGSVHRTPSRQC
Experiment: Measurement of M1 receptor positive allosteric modulator (M1PAM) activity, Ca2+ fluorescence by FLIPRtetra (Experimental Example 1)
Format: cell-based
Conditions: for activity (%) at 10 μM: 10 μM test compound, 100% = acetylcholine 1 μM, 0% = DMSO; for EC50: inflection point of concentration-dependent curve, in presence of acetylcholine at EC20 (0.8-1.0 nM), CHO-K1 cells expressing hCHRM1, read-out: IP value
How it was run: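 CHO-K1 cells stably expressing hCHRM1, loaded with Fluo-4 AM (probenecid), received compound with acetylcholine at EC20 (final 0.8-1.0 nM); Ca2+ fluorescence read 1 min by FLIPRtetra. Activity scaled 0% (DMSO) to 100% (1 μM acetylcholine); IP from inflection point of concentration curve.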

Cc1ccc(Cc2cc3c(c(F)c2C)OCN([C@H]2COCC[C@@H]2O)C3=O)cn1 [Example 32, 1,5-anhydro-2,4-dideoxy-2-(8-fluoro-7-methyl-6-((6-methylpyridin-3-yl)methyl)-4-oxo-2H-1,3-benzoxazin-3(4H)-yl)-L-threo-pentitol]
activity (%) at 10 μM: 108%
EC50: 0.037 µM

Cc1ccc(Cc2cc3c(c4ccccc24)OCN([C@H]2COCC[C@@H]2O)C3=O)cn1 (single isomer, unassigned) [Example 3, 1,5-anhydro-2,4-dideoxy-2-(6-((6-methylpyridin-3-yl)methyl)-4-oxo-2H-naphtho[2,1-e][1,3]oxazin-3(4H)-yl)-threo-pentitol monohydrochloride (optical isomer)]
activity (%) at 10 μM: 103%
EC50: 0.0025 µM

COc1ccc(Cc2cc3c(c(C)c2C)OCN([C@H]2COCC[C@@H]2O)C3=O)cc1 (single isomer, unassigned) [Example 17, 1,5-anhydro-2,4-dideoxy-2-(6-(4-methoxybenzyl)-7,8-dimethyl-4-oxo-2H-1,3-benzoxazin-3(4H)-yl)-threo-pentitol (optical isomer)]
activity (%) at 10 μM: 112%
EC50: 0.027 µM

COc1ccc(Cc2cc3c(cc2C)OCN([C@H]2CCC[C@@H]2O)C3=O)cc1 [Example 73, 3-((1S,2S)-2-hydroxycyclopentyl)-6-(4-methoxybenzyl)-7-methyl-2,3-dihydro-4H-1,3-benzoxazin-4-one]
activity (%) at 10 μM: 97%
EC50: 0.059 µM

C=Cc1ccc(Cc2cc3c(c4ccccc24)OCN([C@H]2COCC[C@@H]2O)C3=O)cn1 [Example 42, 1,5-anhydro-2,4-dideoxy-2-(4-oxo-6-((6-vinylpyridin-3-yl)methyl)-2H-naphtho[2,1-e][1,3]oxazin-3(4H)-yl)-L-threo-pentitol]
activity (%) at 10 μM: 124%
EC50: 0.002 µM

Cn1cc(-c2ccc(Cc3ccc4c(c3)C(=O)N([C@H]3CCCC[C@@H]3O)CO4)cn2)cn1 (relative stereo) [Example 63, 3-(trans-2-hydroxycyclohexyl)-6-((6-(1-methyl-1H-pyrazol-4-yl)pyridin-3-yl)methyl)-2,3-dihydro-4H-1,3-benzoxazin-4-one]
activity (%) at 10 μM: 99%
EC50: 0.032 µM

Cc1ccc(Cc2cc3c(c(C)c2C)OCN([C@H]2COCC[C@@H]2O)C3=O)cn1 (single isomer, unassigned) [Example 7, 1,5-anhydro-2,4-dideoxy-2-(7,8-dimethyl-6-((6-methylpyridin-3-yl)methyl)-4-oxo-2H-1,3-benzoxazin-3(4H)-yl)-threo-pentitol monohydrochloride (optical isomer)]
activity (%) at 10 μM: 108%
EC50: 0.0079 µM

Cc1ccc(Cc2cc3c(c(F)c2Cl)OCN([C@H]2CCC[C@@H]2O)C3=O)cn1 [Example 81, 7-chloro-8-fluoro-3-((1S,2S)-2-hydroxycyclopentyl)-6-((6-methylpyridin-3-yl)methyl)-2,3-dihydro-4H-1,3-benzoxazin-4-one]
activity (%) at 10 μM: 110%
EC50: 0.086 µM

O=C1NCOc2c1cc(Cc1ccc(Cl)nc1)c1ccccc21 [Example 80, 6-((6-chloropyridin-3-yl)methyl)-2,3-dihydro-4H-naphtho[2,1-e][1,3]oxazin-4-one]
activity (%) at 10 μM: 97%
EC50: 0.081 µM

COc1c(Cc2ccc(-c3cnn(C)c3)nc2)cc2c(c1F)OCN(CC1CCCO1)C2=O (stereo not shown) [Example 74, 8-fluoro-7-methoxy-6-((6-(1-methyl-1H-pyrazol-4-yl)pyridin-3-yl)methyl)-3-(tetrahydrofuran-2-ylmethyl)-2,3-dihydro-4H-1,3-benzoxazin-4-one]
activity (%) at 10 μM: 104%
EC50: 0.059 µM

Cc1c(Cc2ccc(-c3ccn(C)n3)nc2)cc2c(c1F)OCN([C@H]1CCC[C@@H]1O)C2=O [Example 22, 8-fluoro-3-((1S,2S)-2-hydroxycyclopentyl)-7-methyl-6-((6-(1-methyl-1H-pyrazol-3-yl)pyridin-3-yl)methyl)-2,3-dihydro-4H-1,3-benzoxazin-4-one]
activity (%) at 10 μM: 105%
EC50: 0.00069 µM
